Reference: US11852632B2, “Cancer test device, cancer test method, and staining agent for use in cancer test” (MIE UNIVERSITY, priority 2016, dated 2023)
Where two headings read alike, the source gives them in different places.

How the values were obtained:
cancer tissue = assay type: in vivo, laboratory mouse; conditions: mouse; for depth to which the tissue is stained: in vivo
Protocol: (§1) A laboratory mouse was used as the living body. […] The staining period was set at 5 minutes.

healthy mucosa tissue = test system: healthy mucosa tissue; set-up: species or system laboratory mouse; conditions: mouse, in vivo
Protocol: as §1

[1] = target: T1, cancer-related gene product STAT3 (Mus musculus, UniProt P42227); experiment: Curcumin living body staining compared with anti-STAT3 antibody immunostaining of the same site, confocal laser microscope; assay type: in vivo, laboratory mouse; conditions: 1%-curcumin then 1%-Acid Red, FIG. 4A (b) versus (e)
T1 construct: used to stain the expressed STAT3-family cancer-related gene product in the living cell; from tissue; host or cells: inner wall of the large intestine of a living laboratory mouse (cancerous and healthy sites)
Text: The sections (a), (b), and (c) of FIG. 4A are images of a sample that is a double-stained living cell group of the inner wall of the intestine of a living laboratory mouse produced by staining the inner wall of the intestine with a 1%-curcumin solution and then staining the curcumin-stained inner wall with 1%-Acid Red (C27H29N2NaO7S2). A confocal laser microscope was used as the image device.
It is therefore determined that the site containing the cell group heavily stained with the curcumin stain is ultra-early cancer. The three panels (d), (e), and (f) in the lower row of FIG. 4A show images of the same site of the large intestine of the digestive tract of the laboratory mouse imaged in the same living body staining as that in the upper row, fixed with formalin, and then imaged in the fluorescence antibody technique. […] The section (f) is a (d)+(e) superimposed image.
The sections (d), (e), and (f) of FIG. 4A are produced by fixing the intestine of the laboratory mouse described above with formalin, then immunostaining the intestine with an anti-STAT3 antibody that bonds to the STAT3-family cancer-related gene product, and imaging the same location as those surrounded by the white frames in the sections (a), (b), and (c). In the sections (d) to (f), the samples were fixed with formalin and therefore slightly shrunk.

T1 sequence (P42227 whole entry): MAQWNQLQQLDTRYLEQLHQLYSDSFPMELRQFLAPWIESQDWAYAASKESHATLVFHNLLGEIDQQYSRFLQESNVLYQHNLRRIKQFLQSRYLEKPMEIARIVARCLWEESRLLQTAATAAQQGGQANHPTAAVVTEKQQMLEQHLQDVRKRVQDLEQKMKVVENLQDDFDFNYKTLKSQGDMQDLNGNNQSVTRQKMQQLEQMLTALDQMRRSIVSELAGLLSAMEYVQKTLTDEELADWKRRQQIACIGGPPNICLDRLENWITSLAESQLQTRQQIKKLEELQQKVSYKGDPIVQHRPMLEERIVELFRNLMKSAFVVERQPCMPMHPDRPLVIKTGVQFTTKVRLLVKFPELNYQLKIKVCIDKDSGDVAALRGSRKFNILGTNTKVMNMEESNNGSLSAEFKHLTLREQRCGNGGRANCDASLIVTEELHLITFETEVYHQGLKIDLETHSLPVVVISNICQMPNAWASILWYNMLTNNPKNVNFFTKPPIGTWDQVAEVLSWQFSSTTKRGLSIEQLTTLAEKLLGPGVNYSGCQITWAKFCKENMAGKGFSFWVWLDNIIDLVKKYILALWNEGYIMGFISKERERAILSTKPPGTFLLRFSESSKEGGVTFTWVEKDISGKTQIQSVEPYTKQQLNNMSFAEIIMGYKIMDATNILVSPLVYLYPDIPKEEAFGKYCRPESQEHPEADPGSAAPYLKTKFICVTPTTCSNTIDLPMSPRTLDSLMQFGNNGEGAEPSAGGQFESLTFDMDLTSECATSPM

permeability in the cancer tissue compared with the healthy mucosa tissue (cancer tissue) | depth to which the tissue is stained (cancer tissue) | depth to which the tissue is stained (healthy mucosa tissue) | depth to which the tissue is stained (cancer tissue; 5 min) | depth to which the tissue is stained (healthy mucosa tissue; 5 min) | SMILES | distribution of heavily stained cell group versus cell group with STAT3 highly expressed (anti-STAT3 antibody) [1]
lower permeability | about 40 μm | about 70 μm |  |  | CCN(CC)c1ccc2c(-c3ccc(S(=O)(=O)[O-])cc3S(=O)(=O)[O-])c3ccc(=[N+](CC)CC)cc-3oc2c1.[Na+] [Acid Red] | 
higher permeability |  |  | about 40 μm | about 20 μm | COc1cc(/C=C/C(=O)CC(=O)/C=C/c2ccc(O)c(OC)c2)ccc1O [curcumin] | coincides with the distribution of the cell group shown in the section (e) in the lower row and having the cancer-related gene product STAT3 highly expressed
